According to US20230248652A1, “BIODEGRADEABLE MULTI-CAVITY MICROPARTICLES AND THEIR USE IN TREATMENT” (OXFORD UNIVERSITY INNOVATION LIMITED, priority 2020, published 2023):

Tested on: 3D foam cell spheroid
Experiment: HIFU implantation of loaded mcPLGA MPs into 3D foam cell spheroids (fluorescence)
Type: cell-based, human
Details: HIFU exposure, 1 mg/ml
Protocol: As the cells in the ex vivo porcine artery were considered non-viable, we have also tested the ability to deliver DAPI to viable cells using a 3D foam cell spheroid model (FIG. 13).
THP-1 cells, a human monocytic cell line (ATCC, Rockville, MD) were routinely cultured in Roswell Park Memorial Institute (RPMI) 1640 Medium supplemented with 100 IU/ml of penicillin, 100 µg/ml streptomycin, 2 mmol/l L-glutamine, 10% (vol/vol) FBS and incubated in a humidified atmosphere of 5% CO2 in an incubator at 37° C. The medium was replaced every 2-3 days by centrifuging these suspended cells at 125 g for 5 min. For differentiation of THP-1 monocytes into macrophages, THP-1 cells were seeded at a density of 7 × 10^5 cells/ml with differentiation medium, growth medium supplemented with 50 ng/mL phorbol 12-myristate 13-acetate (PMA), for 3 days to obtain macrophages. Subsequently, for foam cells induction, macrophages were incubated with 100 µg/ml oxLDL (Low Density Lipoprotein from Human Plasma, oxidized; Invitrogen,USA) in the differentiation medium for 2 days.
Foam cells were used to produce a three-dimensional (3D) foam cell spheroid model by modification of the hanging drop method. Single-cell suspensions were generated from trypsinized monolayers. […]
Fluorescence microscopy was used to analyze the distribution of mcPLGA MPs and the release of therapeutics (FIG. 27c). […]

## N=C(N)c1ccc(-c2cc3ccc(C(=N)N)cc3[nH]2)cc1 [DAPI]
  delivery of DAPI / particle distribution in foam cell spheroid: diffused through the membranes of the cells to stain the DNA of the foam cells
